Our source for the Ki values is patent publication US6680323B2, “Dihydropyrimidines and uses thereof” (Synaptic Pharmaceutical Corporation, priority 1998, dated 2004).

For one experiment, the target named is T1, human α1d receptor (Homo sapiens, UniProt P25100).
T1 construct: expressed in transfected cells
T1 sequence (P25100 1-572): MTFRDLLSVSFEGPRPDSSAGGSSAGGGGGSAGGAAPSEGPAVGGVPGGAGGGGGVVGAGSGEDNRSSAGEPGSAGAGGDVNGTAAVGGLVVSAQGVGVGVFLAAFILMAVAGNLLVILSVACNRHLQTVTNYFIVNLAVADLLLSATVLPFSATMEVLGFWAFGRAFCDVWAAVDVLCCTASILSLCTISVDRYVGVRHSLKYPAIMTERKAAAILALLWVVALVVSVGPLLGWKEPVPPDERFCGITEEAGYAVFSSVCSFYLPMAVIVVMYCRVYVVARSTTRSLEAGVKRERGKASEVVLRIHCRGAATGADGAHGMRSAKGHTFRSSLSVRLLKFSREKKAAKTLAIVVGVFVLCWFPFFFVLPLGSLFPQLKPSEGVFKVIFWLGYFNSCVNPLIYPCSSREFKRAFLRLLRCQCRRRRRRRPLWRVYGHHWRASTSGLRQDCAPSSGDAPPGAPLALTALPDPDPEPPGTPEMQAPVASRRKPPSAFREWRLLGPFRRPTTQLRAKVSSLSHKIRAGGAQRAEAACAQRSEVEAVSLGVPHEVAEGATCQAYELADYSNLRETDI
Put plainly: Radioligand binding ([3H]prazosin) at cloned human α1d receptor. The settings on record: second column headed hα1a (c3); membranes of transfected LM(tk−) cells, [3H]prazosin 0.5 nM; read-out: Binding affinity hα1a. The procedure:
The activity of compounds at the different human receptors was determined in vitro using cultured cell lines that selectively express the receptor of interest. These cell lines were prepared by transfecting the cloned cDNA or cloned genomic DNA or constructs containing both genomic DNA and cDNA encoding the human α-adrenergic receptors as follows:
α1d Human Adrenergic Receptor
The entire coding region of α1d (1719 bp), including 150 base pairs of 5′ untranslated sequence (5′ UT) and 300 bp of 3′ untranslated sequence (3′ UT), was cloned into the BamHI and ClaI sites of the polylinker-modified eukaryotic expression vector pCEXV-3, called EXJ.HR. The construct involved the ligation of partial overlapping human lymphocyte genomic and hippocampal cDNA clones: 5′ sequence were contained on a 1.2 kb SmaI-XhoI genomic fragment (the vector-derived BamHI site was used for subcloning instead of the internal ninsert-derived SmaI site) and 3′ sequences were contained on an 1.3 kb XhoI-ClaI cDNA fragment (the ClaI site was from the vector polylinker). Stable cell lines were obtained by cotransfection with the plasmid α1A/EXJ (expression vector containing the α1a receptor gene (old nomenclature)) and the plasmid pGCcos3neo (plasmid containing the aminoglycoside transferase gene) into LM(tk−) cells using calcium phosphate technique. The cells were grown, in a controlled environment (37° C., 5% CO2), as monolayers in Dulbecco's modified Eagle's Medium (GIBCO, Grand Island, N.Y.) containing 25 mM glucose and supplemented with 10% bovine calf serum, 100 units/ml penicillin g, and 100 μg/ml streptomycin sulfate. Stable clones were then selected for resistance to the antibiotic G-418 (1 mg/ml), and membranes were harvested and assayed for their ability to bind [^3H]prazosin as described below (see “Radioligand Binding assays”).
The cell line expressing the human α1d receptor used herein was designated L-α1A (old nomenclature) and was deposited with the American Type Culture Collection, 12301 Parklawn Drive, Rockville, Md. 20852, U.S.A. under the provisions of the Budapest Treaty for the International Recognition of the Deposit of Microorganisms for the Purposes of Patent Procedure. The cell line expressing the human α1d receptor, was accorded ATCC Accession No. CRL 11138, and was deposited on Sep. 25, 1992.
Radioligand Binding Assays for α1 Receptors
Transfected cells from culture flasks were scraped into 5 ml of 5 mM Tris-HCl, 5 mM EDTA, pH 7.5, and lysed by sonication. The cell lysates were centrifuged at 1000 rpm for 5 min at 4° C., and the supernatant was centrifuged at 30,000×g for 20 min at 4° C. The pellet was suspended in 50 mM Tris-HCl, 1 mM MgCl2, and 0.1% ascorbic acid at pH 7.5. Binding of the α1 antagonist [^3H]prazosin (0.5 nM, specific activity 76.2 Ci/mmol) to membrane preparations of LM(tk−) cells was done in a final volume of 0.25 ml and incubated at 37° C. for 20 min. Nonspecific binding was determined in the presence of 10 μM phentolamine. The reaction was stopped by filtration through GF/B filters using a cell harvester. Inhibition experiments, routinely consisting of 7 concentrations of the tested compounds, were analyzed using a non-linear regression curve-fitting computer program to obtain Ki values.

The target of another experiment is T2, human α2a receptor (Homo sapiens, UniProt P08913).
T2 construct: expressed in transfected cells
T2 sequence (P08913 1-465): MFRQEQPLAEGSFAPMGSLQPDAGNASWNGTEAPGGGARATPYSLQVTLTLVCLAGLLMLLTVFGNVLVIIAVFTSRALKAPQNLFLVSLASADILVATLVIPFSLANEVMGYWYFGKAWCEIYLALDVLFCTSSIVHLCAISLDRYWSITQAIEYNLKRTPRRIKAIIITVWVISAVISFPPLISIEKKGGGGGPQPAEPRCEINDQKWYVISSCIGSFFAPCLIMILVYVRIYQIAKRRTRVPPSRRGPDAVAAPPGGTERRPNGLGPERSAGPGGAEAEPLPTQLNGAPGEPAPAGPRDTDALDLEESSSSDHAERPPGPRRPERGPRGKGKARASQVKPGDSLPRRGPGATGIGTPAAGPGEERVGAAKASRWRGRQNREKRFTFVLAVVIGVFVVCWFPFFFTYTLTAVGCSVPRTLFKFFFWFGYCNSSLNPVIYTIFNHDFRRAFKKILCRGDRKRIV
Put plainly: Competition binding ([3H]rauwolscine) at cloned human α2a receptor. The settings on record: transfected LM(tk−) cells, [3H]rauwolscine 0.5 nM; read-out: Binding affinity hα2a. From the text:
α2 Human Adrenergic Receptors
To determine the potency of α1 antagonists at the α2 receptors, LM(tk−) cell lines stably transfected with the genes encoding the α2a, α2b, and α2c receptors were used. The cell line expressing the α2a receptor is designated L-α2A, and was deposited on Nov. 6, 1992 under ATCC Accession No. CRL 11180. The cell line expressing the α2b receptor is designated L-NGC-α2B, and was deposited on Oct. 25, 1989 under ATCC Accession No. CRL10275. The cell line expressing the α2c receptor is designated L-α2C, and was deposited on Nov. 6, 1992 under ATCC Accession No. CRL-11181. All the cell lines were deposited with the American Type Culture Collection, 12301 Parklawn Drive, Rockville, Md. 20852, U.S.A. under the provisions of the Budapest Treaty for the International Recognition of the Deposit of Microorganisms for the Purposes of Patent Procedure. Cell lysates were prepared as described above (see Radioligand Binding Assays), and suspended in 25 mM glycylglycine buffer (pH 7.6 at room temperature). Equilibrium competition binding assay were performed using [3H]rauwolscine (0.5 nM), and nonspecific binding was determined by incubation with 10 μM phentolamine. The bound radioligand was separated by filtration through GF/B filters using a cell harvester.

Where a name gives a salt, the structure may show the parent alone. A value given as a limit tells only on which side of the number the result lay.

As to `O=C1OCC2=C1C(c1ccc(F)c(F)c1)N(C(=O)NCCCN1CCC(c3ccccn3)CC1)C(=O)N2` (single isomer, unassigned; (+)) [Compound 8, (+)-1-3-{[4-(3,4-Difluorophenyl)-2,5-dioxo-1,2,5,7-tetrahydro-4H-furo[3,4-d]-pyrimidine-3-carbonyl]amino}-propyl-4-(2-pyridyl)-piperidine], the Ki at human α1d receptor worked out at 1.97 µM; at human α2a receptor it was 1.5 µM.

Take `COCC1=C(C(=O)OC)[C@H](c2ccc(F)c(F)c2)N(C(=O)NCCCO)C(=O)N1` [Compound 1, (+)-1,2,3,6-Tetrahydro-1-(3-hydroxypropyl)carboxamido-5-methoxycarbonyl-4-methoxymethyl-6-(3,4-difluorophenyl)-2-oxo-pyrimidine]: the Ki at human α1d receptor was > 50 µM; at human α2a receptor, 40 µM.

On to `COCC1=C(C(=O)OC)[C@H](c2ccc(F)c(F)c2)N(C(=O)NCCCN2CCC(c3cccc[n+]3[O-])CC2)C(=O)N1` [Compound 2, (+)-1,2,3,6-Tetrahydro-1-{N-[4-(2-pyridyl)piperidin-1-yl]propyl}carboxamido-5-methoxycarbonyl-4-methoxymethyl-6-(3,4-difluorophenyl)-2-oxopyrimidine-pyridine-N-oxide hydrochloride], for which the Ki at human α1d receptor was found to be 3.7 µM; on human α2a receptor, 4.2 µM.

Take `COCC1=C(C(=O)OC)[C@H](c2ccc(F)c(F)c2)N(C(=O)NCCC[n+]2ccc(-c3ccccn3)cc2)C(=O)N1` [Compound 3, 4-(2-Pyridyl)-1-{3-[5-carboxymethyl-4-methoxymethyl-2-oxo-6(S)-(3,4-difluorphenyl)-1,2,3,6-tetrahydropyrimidin-1-yl]carboxyaminopropyl}pyridinium chloride]: the Ki on human α1d receptor is > 5 µM; at human α2a receptor, 5.62 µM.

For the compound `COC(=O)C1=C(CO)NC(=O)N(C(=O)NCCCN2CCC(c3ccccn3)CC2)[C@H]1c1ccc(F)c(F)c1` [Compound 7, (+)-1,2,3,6-Tetrahydro-1-{N-[4-(2-pyridyl)piperidin-1-yl]propyl}carboxamido-5-methoxycarbonyl-4-hydroxymethyl-6-(3,4-difluorophenyl)-2-oxopyrimidine], the Ki at human α1d receptor amounted to 1.2 µM; on human α2a receptor, 0.38 µM.

On to `O=C(O)CCNC(=O)N1C(=O)NC2=C(C(=O)OC2)[C@@H]1c1ccc(F)c(F)c1` [Compound 9], for which the Ki at human α1d receptor is > 5 µM; at human α2a receptor, > 50 µM.
